Data taken from patent US8889679B2, “Glutaraldehyde based biocidal compositions and methods of use” (Dow Global Technologies LLC, priority 2009, dated 2014).

Experiments:
[1] = test system: oil field isolated anaerobic SRB consortium; assay: Biocidal efficacy against anaerobic bacteria for high temperature and sulfide-rich conditions: lowest concentration for 99.9% bacterial reduction in 2 hours; format: cell-based, anaerobic sulfate-reducing bacteria (SRB); conditions: 80° C., 10 ppm sulfide ion; for Dosage required for 99.9% bacterial kill in 2 h (active ppm) Glutaraldehyde: glutaraldehyde concentration alone or in combination
Description: (§1) The synergy indexes reported in the following examples are calculated using the following equation: Synergy Index=Ca/CA+Cb/CB
(§2) where Ca: Concentration of biocide A required to achieve a certain level or complete bacterial kill when used in combination;
(§3) CA: Concentration of biocide A required to achieve a certain level or complete bacterial kill when used alone;
(§4) Cb: Concentration of biocide B required to achieve a certain level or complete bacterial kill when used in combination; and
(§5) CB: Concentration of biocide B required to achieve a certain level or complete bacterial kill when used alone.
(§6) A synergy index (SI) of 1 indicates additivity, a synergy index of less than 1 indicates synergy, and a synergy index greater than 1 indicates antagonism.
(§7) Various methods known to those skilled in the art can be used for evaluating biocidal efficacy. In the examples below, aliquots of the biocide-treated samples are removed at predetermined time points and the biocide concentration required to achieve a certain level or complete bacterial kill is determined by culture-based methods including serial dilution. In some examples, the method is based or adapted (e.g., for high temperature testing or for the presence of sulfide) from the methodology described in international patent publication WO 2009/039004, which is incorporated herein by reference.
Inside an anaerobic chamber, biocide solutions (single or in combination) are prepared at various concentrations in a salt solution (3.1183 g of NaCl, 1.3082 mg of NaHCO3, 47.70 mg of KCl, 72.00 mg of CaCl2, 54.49 mg of MgSO4, 172.28 mg of Na2SO4, 43.92 mg of Na2CO3 in 1 L water). The biocide solutions are challenged with 10^4 to 10^5 CFU/mL of an oil field isolated anaerobic SRB consortium and 10 ppm sulfide ion. The mixtures are incubated at 80° C. under anaerobic conditions for 2 hours after which the biocidal efficacy against the field SRB consortium is evaluated. The biocidal efficacy is determined by selecting the lowest biocide concentration required to achieve at least a 99.9% bacterial reduction in 2 hours. Synergy index is then calculated.

[2] = test system: oil field isolated anaerobic SRB consortium; assay: Biocidal efficacy against anaerobic bacteria: minimum biocide concentration for complete bacteria kill (MBC), 40° C., 24 hour; format: cell-based, anaerobic sulfate-reducing bacteria (SRB); conditions: for MBC (active ppm) Glutaraldehyde: glutaraldehyde concentration alone or in combination
Description: as §1, §2, §3, §4, §5, §6, §7
Inside an anaerobic chamber, a deaerated sterile salt solution (3.1183 g of NaCl, 1.3082 mg of NaHCO3, 47.70 mg of KCl, 72.00 mg of CaCl2, 54.49 mg of MgSO4, 172.28 mg of Na2SO4, 43.92 mg of Na2CO3 in 1 L water) is contaminated with an oil field isolated anaerobic SRB consortium at final bacterial concentrations of 10^5-10^6 CFU/mL. Aliquots of this contaminated water are then treated with biocide solution (single or in combination) at various concentrations.

[3] = glutaraldehyde/tris nitro series
[4] = glutaraldehyde/CTAC series, CTAC concentration alone or in combination
[5] = glutaraldehyde/HHT series, HHT concentration alone or in combination
[6] = glutaraldehyde/tris nitro series, tris nitro concentration alone or in combination

For O=CCCCC=O [glutaraldehyde], the “Dosage required for 99.9% bacterial kill in 2 h (active ppm) Glutaraldehyde” value ([1]; glutaraldehyde/CTAC series) was 8.7 active ppm, the “Dosage required for 99.9% bacterial kill in 2 h (active ppm) Glutaraldehyde” value ([1]; glutaraldehyde/HHT series) was 15.6 active ppm and the “Dosage required for 99.9% bacterial kill in 2 h (active ppm) Glutaraldehyde” value [1, 3] was 22.5 active ppm. For the same compound, the “MBC (active ppm) Glutaraldehyde” value ([2]; glutaraldehyde/CTAC series) was 5.3 active ppm, the “MBC (active ppm) Glutaraldehyde” value ([2]; glutaraldehyde/HHT series) was 4.0 active ppm and the “MBC (active ppm) Glutaraldehyde” value [2, 3] was 4.0 active ppm.

With ClC=CC[N+]12CN3CN(CN(C3)C1)C2 [CTAC, 1-(3-chloroallyl)-3,5,7-triaza-1-azoniaadamantane] the “Dosage required for 99.9% bacterial kill in 2 h (active ppm) CTAC” value [1, 4] was 375.0 active ppm and the “MBC (active ppm) CTAC” value [2, 4] was 133.3 active ppm.

In the case of OCCN1CN(CCO)CN(CCO)C1 [HHT, hexahydro-1,3,5-tris(2-hydroxyethyl)-s-triazine], the “Dosage required for 99.9% bacterial kill in 2 h (active ppm) HHT” value [1, 5] is reported as 125.0 active ppm and the “MBC (active ppm) HHT” value [2, 5] is reported as 133.3 active ppm.

With O=[N+]([O-])C(CO)(CO)CO [tris nitro, tris(hydroxymethyl)nitromethane] the “Dosage required for 99.9% bacterial kill in 2 h (active ppm) Tris Nitro” value [1, 6] was 180.0 active ppm and the “MBC (active ppm) Tris Nitro” value [2, 6] was 44.4 active ppm.
